In patent publication US20220378042A1, “Herbicide combinations comprising glufosinate and oxyfluorfen” (BASF SE, priority 2020, published 2022) one finds inhibition data, which are given here for 2 compounds.

Read-outs that look alike come from different tables or passages of the source.

Experiment [1] has as its system Echinochloa crus-galli. Briefly: greenhouse post-emergence herbicidal activity on Echinochloa crus-galli. The class given is in vivo. The following applies: for inhibition at 327 g/ha: read-out: Solo Glufosinate % activity; for inhibition at 10.2 g/ha: 10.2 g ai/ha, scale 0-100% damage vs untreated, read-out: Solo Oxyfluorfen % activity. The source says: (§1) For the post-emergence treatment, the test plants were first grown to 3 to 4 inch (7.6 to 10.2 cm) tall, and only then treated. Here, the herbicidal compositions were suspended or emulsified in water as distribution medium and sprayed using finely distributing nozzles.
(§2) The herbicide compounds applied in the examples were used as commercially available formulations which have been diluted with deionized water to a suitable concentration.
(§3) Oxyfluorfen (commercial product name: Goal 2XL) was used as an emulsifiable concentrate having an active ingredient concentration of 240 g/l. Glufosinate (commercial product name: Liberty) was used as an aqueous soluble liquid of glufosinate ammonium having an active ingredient concentration of 280 g/l. Adjuvants of ammonium sulfate (AMS) and non-ionic surfactant (NIS) were added in all treatments. AMS and NIS were AMS Liquid and Induce at rates of 1680 g/ha and 0.25% (v/v), respectively.
(§4) The test period extended over 28 days after treatment (DAT). During this time, the plants were tended and their response to the individual treatments was evaluated.
(§5) The evaluation for the damage caused by the chemical compositions was carried out using a scale from 0 to 100%, compared to the untreated control plants. Here, 0 means no damage and 100 means complete destruction of the plants.
(§6) The plants used in the greenhouse experiments belonged to the following species:
(§7) E=X+Y−(X·Y/100) • where X=effect in percent using Oxyfluorfen at an application rate a; • Y=effect in percent using glufosinate at application rate b; • E=expected effect (in %) of Oxyfluorfen plus glufosinate at application rates a+b.
(§8) The value E corresponds to the effect (plant damage or injury) which is to be expected if the activity of the individual compounds is just additive. If the observed effect is higher than the value E calculated according to Colby, a synergistic effect is present.

Experiment [2] deals with Chenopodium album. Briefly: greenhouse post-emergence herbicidal activity on Chenopodium album. The class given is in vivo. The following applies: for inhibition at 327 g/ha: read-out: Solo Glufosinate % activity; for inhibition at 10.2 g/ha: 10.2 g ai/ha, scale 0-100% damage vs untreated, read-out: Solo Oxyfluorfen % activity.
Text: as §1, §2, §3, §4, §5, §6, §7, §8

On to `CP(=O)(O)CCC(N)C(=O)O` (racemic) [Glufosinate, (2RS)-2-amino-4-[hydroxy(methyl)phosphinoyl]butyric acid], for which the inhibition at 327 g/ha in experiment [1] (168 h) amounted to 84%; in experiment [1] (336 h) it was 25%; in experiment [1] (504 h), 20%; in experiment [2] (168 h) it was 81%; in experiment [2] (336 h), 75%; in experiment [2] (504 h) it was 78%.
For `CCOc1cc(Oc2ccc(C(F)(F)F)cc2Cl)ccc1[N+](=O)[O-]` [Oxyfluorfen], the inhibition at 10.2 g/ha in experiment [1] (168 h, 7 DAT) was 28%; in experiment [1] (336 h, 14 DAT), 15%; in experiment [1] (504 h, 21 DAT) it was 20%; in experiment [2] (168 h, 7 DAT), 33%; in experiment [2] (336 h, 14 DAT), 25%; in experiment [2] (504 h, 21 DAT), 30%.
